Laboratory results as given in BindingDB's records for patent US11453697 (Merck Sharp & Dohme, 2022).

Target: Stimulator of interferon genes protein [1-379,R71H,G230A,H232R,R293Q] (Homo sapiens, UniProt Q86WV6, G230A/H232R/R293Q/R71H)
Assay: 3H-cGAMP Filtration Binding Assay (HAQ STING)
Method: Compound and membrane then preincubated for 60 min at RT to allow compound binding to equilibrate. Following equilibration, 8 nM of [3H] c-GAMP ligand was prepared by diluting into assay buffer, and 50 uL of this working stock was then manually added to each well of the assay plate. […] The filter plates were then dried at 55° C. for 30 min using a pressurized VWR oven before 30 uL of Ultima GoldF scintillate was added to each well. Tritium levels for each reaction well were then measured using a PerkinElmer TopCount plate reader.

Stimulator of interferon genes protein [1-379,R71H,G230A,H232R,R293Q], sequence (Q86WV6 whole entry R71H/G230A/H232R/R293Q, looked up): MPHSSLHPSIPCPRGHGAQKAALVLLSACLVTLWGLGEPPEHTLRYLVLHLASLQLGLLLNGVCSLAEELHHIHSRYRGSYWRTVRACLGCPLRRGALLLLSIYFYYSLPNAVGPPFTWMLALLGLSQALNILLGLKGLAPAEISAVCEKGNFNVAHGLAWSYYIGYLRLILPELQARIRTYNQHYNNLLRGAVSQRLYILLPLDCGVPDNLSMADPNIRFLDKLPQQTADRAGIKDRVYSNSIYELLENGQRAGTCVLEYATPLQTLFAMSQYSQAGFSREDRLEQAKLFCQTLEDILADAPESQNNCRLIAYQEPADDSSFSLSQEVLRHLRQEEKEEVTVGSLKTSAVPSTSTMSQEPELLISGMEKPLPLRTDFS

SMILES	EC50 [µM]
Nc1nc2c(ncn2[C@@H]2O[C@@H]3COP(=O)(S)OC4[C@@H](COP(=O)(S)O[C@H]2C3)O[C@@H](n2nnc3c(N)ncnc32)[C@H]4F)c(=O)[nH]1 (some centres not stated) [US11453697, Example 133]	0.0614
Nc1nc2c(ncn2[C@@H]2O[C@@H]3COP(=O)(S)O[C@H]4[C@H](F)[C@H](n5cnc6c(N)ncnc65)O[C@@H]4COP(=O)(O)O[C@@H]2[C@@H]3F)c(=O)[nH]1 (some centres not stated) [US11453697, Example 143]	0.00105
